Measured values from patent EP0610519B1, “ANTI-HIV DRUG” (priority 1992, dated 1994).
Like-named read-outs stand apart in the source and are kept apart here.

Legend:
HIV (type IIIB) = experiment: inhibition of budding of HIV from infected H-9 cells (reverse transcriptase activity per unit culture medium as index); type: cell-based; details: H-9 cells infected with HIV (type IIIB), 15 minutes treatment, then 360 minutes culture
Method: (§1) Human lymphocyte-derived H-9 cells, infected with HIV (type IIIB), were cultured in an RPMI-1640 medium (product of Biocell Laboratories) containing wortmannin and 10% fetal bovine serum (FBS) at 37°C for 15 minutes in a CO2 incubator. The H-9 cells thus obtained were washed with an RPMI-1640 medium, and then cultured in another RPMI-1640 medium containing 10% FBS at 37°C for 360 minutes in a CO2 incubator. The reverse transcriptase activity per unit culture medium was used as an index to determine the inhibitory effect of wortmannin on the budding of HIV.
(§2) The same test as mentioned above was repeated using MS-444 instead of wortmannin.

[1] = tested on: Human lymphocyte-derived H-9 cells; experiment: host cell growth in the HIV budding test; details: concentration of 100 µM
Method: as §1, §2

[2] = rat, in vivo

SMILES	Budding of HIV (%) (HIV (type IIIB); 0.1 µM test compound)	Budding of HIV (%) (HIV (type IIIB); 1.0 µM test compound)	Budding of HIV (%) (HIV (type IIIB); 10 µM test compound)	Host cell growth [1]	Budding of HIV (%) (HIV (type IIIB); 100 µM test compound)	Budding of HIV (%) (HIV (type IIIB); 1000 µM test compound)	acute toxicity, mortality ([2]; ip, 100 mg/kg)	acute toxicity, mortality ([2]; po, 300 mg/kg)
COC[C@H]1OC(=O)c2coc3c2[C@@]1(C)C1=C(C3=O)[C@@H]2CCC(=O)[C@@]2(C)C[C@H]1OC(C)=O [Wortmannin]	67%	49%	39%	not influenced	–	–	–	–
Cc1occ2c1C(=O)c1c(O)ccc(O)c1C2 [MS-444]	–	–	95%	–	82%	20%	no rats died	no rats died
